Patent publication US20260285850A1, “SUBSTITUTED OXAZOLIDINONES AND IMIDAZOLINONES AS HERBICIDES” (FMC CORPORATION, priority 2023, published 2026)

Experiments:
Assay type in all cases: in vivo
[1] = tested on: ragweed (common ragweed, Ambrosia artemisiifolia); assay: Test A preemergence soil spray, visual injury rating 0-100; settings: 10 days, 0 = no effect, 100 = complete control
Summary of the method: (§1)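 Greenhouse test: loam/sand pots received a surfactant-containing formulation, as a preemergence directed soil spray or a postemergence spray on young plants. Injury was judged visually at day 10 relative to untreated controls.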

[2] = tested on: palmer (palmer amaranth, palmer pigweed, Amaranthus palmeri); assay: as above; settings: 10 days, 0 = no effect, 100 = complete control
Summary of the method: as §1

kochia (Bassia scoparia) [3] = assay: as above; settings: 10 days, 0 = no effect, 100 = complete control
Summary of the method: as §1

[4] = tested on: ryegrass, Italian (italian ryegrass, Lolium multiflorum); assay: as above; settings: 10 days, 0 = no effect, 100 = complete control
Summary of the method: as §1

[5] = tested on: blackgrass (Alopecurus myosuroides); assay: as above; settings: 10 days, 0 = no effect, 100 = complete control
Summary of the method: as §1

[6] = tested on: barnyardgrass (Echinochloa crus-galli); assay: as above; settings: 10 days, 0 = no effect, 100 = complete control
Summary of the method: as §1

[7] = tested on: foxtail, giant (giant foxtail, Setaria faberi); assay: as above; settings: 10 days, 0 = no effect, 100 = complete control
Summary of the method: as §1

[8] = tested on: ragweed (common ragweed, Ambrosia artemisiifolia); assay: Test A postemergence application, visual injury rating 0-100; settings: Postemergence, 10 days; for Ragweed plant response rating (0 to 100 scale): 0 is no effect, 100 is complete control
Summary of the method: as §1

[9] = tested on: horseweed (Erigeron canadensis); assay: as above; settings: Postemergence, 1000 g ai/ha, 0 to 100 scale, 10 days
Summary of the method: as §1

[10] = tested on: palmer (palmer amaranth, palmer pigweed, Amaranthus palmeri); assay: as above; settings: Postemergence, 10 days; for Amaranth, Palmer / Pigweed, Palmer plant response rating (0 to 100 scale): 0 is no effect, 100 is complete control
Summary of the method: as §1

kochia (Bassia scoparia) [11] = assay: as above; settings: Postemergence, 10 days; for Kochia plant response rating (0 to 100 scale): 0 is no effect, 100 is complete control
Summary of the method: as §1

[12] = tested on: ryegrass, Italian (italian ryegrass, Lolium multiflorum); assay: as above; settings: Postemergence, 10 days; for Ryegrass, Italian plant response rating (0 to 100 scale): 0 is no effect, 100 is complete control
Summary of the method: as §1

[13] = tested on: galium (catchweed bedstraw, Galium aparine); assay: as above; settings: Postemergence, 10 days; for Galium plant response rating (0 to 100 scale): 0 is no effect, 100 is complete control
Summary of the method: as §1

[14] = tested on: blackgrass (Alopecurus myosuroides); assay: as above; settings: Postemergence, 10 days; for Blackgrass plant response rating (0 to 100 scale): 0 is no effect, 100 is complete control
Summary of the method: as §1

[15] = tested on: barnyardgrass (Echinochloa crus-galli); assay: as above; settings: Postemergence, 10 days; for Barnyardgrass plant response rating (0 to 100 scale): 0 is no effect, 100 is complete control
Summary of the method: as §1

[16] = tested on: foxtail, giant (giant foxtail, Setaria faberi); assay: as above; settings: 10 days; for Foxtail, Giant plant response rating (0 to 100 scale): 0 is no effect, 100 is complete control
Summary of the method: as §1

rice (Oryza sativa) = assay: Test B flooded paddy test, visual plant response rating 0-100; settings: 250 g ai/ha, Flood, applied to paddy water, evaluated after 13 days
Summary of the method: (§2)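 Plants were grown to the 2-leaf stage, then pots were flooded to 3 cm above the soil and test compounds were applied directly into the paddy water. Water depth was held there throughout; after 13 days in a greenhouse, injury was scored visually against untreated controls.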

[17] = tested on: ducksalad (Heteranthera limosa); assay: as above; settings: 250 g ai/ha, Flood, applied to paddy water, evaluated after 13 days
Summary of the method: as §2

[18] = tested on: sedge, umbrella (small-flower umbrella sedge, Cyperus difformis); assay: as above; settings: 250 g ai/ha, Flood, applied to paddy water, evaluated after 13 days
Summary of the method: as §2

[19] = tested on: barnyardgrass (Echinochloa crusgalli); assay: as above; settings: 250 g ai/ha, Flood, applied to paddy water, evaluated after 13 days
Summary of the method: as §2

[20] = tested on: oat, wild (wild oat, Avena fatua); assay: Test A preemergence soil spray, visual injury rating 0-100; settings: 10 days, 0 = no effect, 100 = complete control
Summary of the method: as §1

soybean (Glycine max) [21] = assay: as above; settings: 10 days, 0 = no effect, 100 = complete control
Summary of the method: as §1

[22] = tested on: wheat (Triticum aestivum); assay: as above; settings: 10 days, 0 = no effect, 100 = complete control
Summary of the method: as §1

corn (Zea mays) [23] = assay: as above; settings: 10 days, 0 = no effect, 100 = complete control
Summary of the method: as §1

[24] = tested on: oat, wild (wild oat, Avena fatua); assay: Test A postemergence application, visual injury rating 0-100; settings: Postemergence, 10 days, 0 is no effect, 100 is complete control
Summary of the method: as §1

soybean (Glycine max) [25] = assay: as above; settings: Postemergence, 10 days, 0 is no effect, 100 is complete control
Summary of the method: as §1

[26] = tested on: wheat (Triticum aestivum); assay: as above; settings: Postemergence, 10 days, 0 is no effect, 100 is complete control
Summary of the method: as §1

corn (Zea mays) [27] = assay: as above; settings: Postemergence, 10 days, 0 is no effect, 100 is complete control
Summary of the method: as §1

## CSCCOC(=O)[C@@H]1C=C[C@H](NC(=O)C2(C)CN(c3cc(F)cc(F)c3)C(=O)O2)C1 (stereo partly drawn) [Compound 48, 2-(Methylthio)ethyl (1S,4R)-4-[[[3-(3,5-difluorophenyl)-5-methyl-2-oxo-5-oxazolidinyl]carbonyl]amino]-2-cyclopentene-1-carboxylate]
[1]; 1000 g ai/ha
  Ragweed plant response rating (0 to 100 scale): 90
[2]; 1000 g ai/ha
  Amaranth, Palmer / Pigweed, Palmer plant response rating (0 to 100 scale): 100
Kochia (Bassia scoparia) [3]; 1000 g ai/ha
  Kochia plant response rating (0 to 100 scale): 100
[4]; 1000 g ai/ha
  Ryegrass, Italian plant response rating (0 to 100 scale): 100
[5]; 1000 g ai/ha
  Blackgrass plant response rating (0 to 100 scale): 90
[6]; 1000 g ai/ha
  Barnyardgrass plant response rating (0 to 100 scale): 100
[7]; 1000 g ai/ha
  Foxtail, Giant plant response rating (0 to 100 scale): 100
[8]; 1000 g ai/ha, 0 to 100 scale
  Ragweed plant response rating: 70
[9]
  Horseweed plant response rating: 70
[10]; 1000 g ai/ha, 0 to 100 scale
  Amaranth, Palmer plant response rating: 90
Kochia (Bassia scoparia) [11]; 1000 g ai/ha, 0 to 100 scale
  Kochia plant response rating: 70
[12]; 1000 g ai/ha, 0 to 100 scale
  Ryegrass, Italian plant response rating: 90
[13]; 1000 g ai/ha, 0 to 100 scale
  Galium plant response rating: 80
[14]; 1000 g ai/ha, 0 to 100 scale
  Blackgrass plant response rating: 100
[15]; 1000 g ai/ha, 0 to 100 scale
  Barnyardgrass plant response rating: 90
[16]; 1000 g ai/ha, 0 to 100 scale
  Foxtail, Giant plant response rating: 90
Rice (Oryza sativa)
  Plant response rating, Rice (0 to 100 scale, 0 is no effect and 100 is complete control): 65
[17]
  Plant response rating, Ducksalad (0 to 100 scale, 0 is no effect and 100 is complete control): 70
[18]
  Plant response rating, Sedge, Umbrella (0 to 100 scale, 0 is no effect and 100 is complete control): 80
[19]
  Plant response rating, Barnyardgrass (0 to 100 scale, 0 is no effect and 100 is complete control): 70

## CC1(C(=O)NC2C=CC(C(=O)OCCS(C)(=O)=O)C2)CN(c2cc(F)cc(F)c2)C(=O)O1 (stereo not shown) [Compound 49]
[20]; 125 g ai/ha
  Oat, Wild plant response rating (0 to 100 scale): 80
[20]; 500 g ai/ha
  Oat, Wild plant response rating (0 to 100 scale): 90
[1]; 125 g ai/ha
  Ragweed plant response rating (0 to 100 scale): 40
[1]; 500 g ai/ha
  Ragweed plant response rating (0 to 100 scale): 90
Soybean (Glycine max) [21]; 125 g ai/ha
  Soybean plant response rating (0 to 100 scale): 80
Soybean (Glycine max) [21]; 500 g ai/ha
  Soybean plant response rating (0 to 100 scale): 90
[22]; 125 g ai/ha
  Wheat plant response rating (0 to 100 scale): 90
[22]; 500 g ai/ha
  Wheat plant response rating (0 to 100 scale): 100
[2]; 125 g ai/ha
  Amaranth, Palmer plant response rating (0 to 100 scale): 90
[2]; 500 g ai/ha
  Amaranth, Palmer plant response rating (0 to 100 scale): 100
Kochia (Bassia scoparia) [3]; 125 g ai/ha
  Kochia plant response rating (0 to 100 scale): 90
Kochia (Bassia scoparia) [3]; 500 g ai/ha
  Kochia plant response rating (0 to 100 scale): 100
[4]; 125 g ai/ha
  Ryegrass, Italian plant response rating (0 to 100 scale): 80
[4]; 500 g ai/ha
  Ryegrass, Italian plant response rating (0 to 100 scale): 100
[5]; 125 g ai/ha
  Blackgrass plant response rating (0 to 100 scale): 70
[5]; 500 g ai/ha
  Blackgrass plant response rating (0 to 100 scale): 80
[6]; 125 g ai/ha
  Barnyardgrass plant response rating (0 to 100 scale): 90
[6]; 500 g ai/ha
  Barnyardgrass plant response rating (0 to 100 scale): 100
[7]; 125 g ai/ha
  Foxtail, Giant plant response rating (0 to 100 scale): 90
[7]; 500 g ai/ha
  Foxtail, Giant plant response rating (0 to 100 scale): 100
Corn (Zea mays) [23]; 125 g ai/ha
  Corn plant response rating (0 to 100 scale): 80
Corn (Zea mays) [23]; 500 g ai/ha
  Corn plant response rating (0 to 100 scale): 90
[24]; 125 g ai/ha
  Oat, Wild plant response rating (0 to 100 scale): 90
[24]; 500 g ai/ha
  Oat, Wild plant response rating (0 to 100 scale): 90
[8]; 125 g ai/ha
  Ragweed plant response rating (0 to 100 scale): 70
[8]; 500 g ai/ha
  Ragweed plant response rating (0 to 100 scale): 70
Soybean (Glycine max) [25]; 125 g ai/ha
  Soybean plant response rating (0 to 100 scale): 90
Soybean (Glycine max) [25]; 500 g ai/ha
  Soybean plant response rating (0 to 100 scale): 90
[26]; 125 g ai/ha
  Wheat plant response rating (0 to 100 scale): 90
[26]; 500 g ai/ha
  Wheat plant response rating (0 to 100 scale): 90
[10]; 125 g ai/ha
  Amaranth, Palmer / Pigweed, Palmer plant response rating (0 to 100 scale): 90
[10]; 500 g ai/ha
  Amaranth, Palmer / Pigweed, Palmer plant response rating (0 to 100 scale): 100
Kochia (Bassia scoparia) [11]; 125 g ai/ha
  Kochia plant response rating (0 to 100 scale): 70
Kochia (Bassia scoparia) [11]; 500 g ai/ha
  Kochia plant response rating (0 to 100 scale): 80
[12]; 125 g ai/ha
  Ryegrass, Italian plant response rating (0 to 100 scale): 80
[12]; 500 g ai/ha
  Ryegrass, Italian plant response rating (0 to 100 scale): 90
[13]; 125 g ai/ha
  Galium plant response rating (0 to 100 scale): 70
[13]; 500 g ai/ha
  Galium plant response rating (0 to 100 scale): 80
[14]; 125 g ai/ha
  Blackgrass plant response rating (0 to 100 scale): 90
[14]; 500 g ai/ha
  Blackgrass plant response rating (0 to 100 scale): 100
[15]; 125 g ai/ha
  Barnyardgrass plant response rating (0 to 100 scale): 100
[15]; 500 g ai/ha
  Barnyardgrass plant response rating (0 to 100 scale): 100
[16]; 125 g ai/ha
  Foxtail, Giant plant response rating (0 to 100 scale): 90
[16]; 500 g ai/ha
  Foxtail, Giant plant response rating (0 to 100 scale): 90
Corn (Zea mays) [27]; 125 g ai/ha
  Corn plant response rating (0 to 100 scale): 100
Corn (Zea mays) [27]; 500 g ai/ha
  Corn plant response rating (0 to 100 scale): 100
Rice (Oryza sativa)
  Plant response rating, Rice (0 to 100 scale, 0 is no effect and 100 is complete control): 55
[17]
  Plant response rating, Ducksalad (0 to 100 scale, 0 is no effect and 100 is complete control): 90
[18]
  Plant response rating, Sedge, Umbrella (0 to 100 scale, 0 is no effect and 100 is complete control): 95
[19]
  Plant response rating, Barnyardgrass (0 to 100 scale, 0 is no effect and 100 is complete control): 80
